# How the values were obtained:
# [1] = test system: rabbit serum obtained by immunizing with SARS-CoV strain Frankfurt 1; format: binding
# [2] = test system: sera SARS-green, SARS-yellow, 1a, 1b, 2, 6, 37, 62 and London; format: binding, human
# two control sera = format: binding, human
# [3] = test system: serum 1a (individual 1, early serum); format: binding, human
# [4] = test system: serum 1b (individual 1, late serum); format: binding, human
# serum 2 (individual 2) = format: binding, human
# serum 6 (individual 6) = format: binding, human
# serum 37 (individual 37) = format: binding, human
# serum 62 (individual 62) = format: binding, human
# serum London = format: binding, human
# serum SARS-yellow = format: binding, human
# serum SARS-green = format: binding, human
# [5] = test system: control serum LUMC (pooled serum of ten healthy hospital workers); format: binding, human
# [6] = test system: control serum Blood-bank (commercial negative donor pooled serum); format: binding, human
Sequence,Rabbit serum linear peptides [1],Rabbit serum looped peptides [1],"Recognition of the peptide by sera of individuals infected by SARS-CoV, form recognized [2]",Recognition by at least one of the control sera (two control sera),Binding of serum 1a to linear peptides of Orf14 of SARS-CoV TOR2 [3],Binding of serum 1b to linear peptides of Orf14 of SARS-CoV TOR2 [4],Binding of serum 2 to linear peptides of Orf14 of SARS-CoV TOR2 (serum 2 (individual 2)),Binding of serum 6 to linear peptides of Orf14 of SARS-CoV TOR2 (serum 6 (individual 6)),Binding of serum 37 to linear peptides of Orf14 of SARS-CoV TOR2 (serum 37 (individual 37)),Binding of serum 62 to linear peptides of Orf14 of SARS-CoV TOR2 (serum 62 (individual 62)),Binding of serum London to linear peptides of Orf14 of SARS-CoV TOR2 (serum London),Binding of serum SARS-yellow to linear peptides of Orf14 of SARS-CoV TOR2 (serum SARS-yellow),Binding of serum SARS-green to linear peptides of Orf14 of SARS-CoV TOR2 (serum SARS-green),Control serum LUMC linear peptides [5],Control serum LUMC looped peptides [5],Control Serum Blood-Bank Looped peptides [6],Control serum Blood-bank linear peptides [6]
ICTVVQRCASNKPHV,0.3,0.4,recognized in linear and in looped form,recognized by at least one of the control sera,,,,,,,,,,,,,
QHCQKASTQREAEAA,,,recognized in looped form,,0.4,0.4,0.6,0.3,0.5,0.4,0.5,0.3,0.3,0.4,1.2,1.1,0.4
CQKASTQREAEAAVK,,,recognized in looped form,,0.3,0.2,0.3,0.2,0.3,0.2,0.2,0.1,0.0,0.2,0.5,0.7,0.2
YNFLKEQHCQKASTQ,,,recognized in looped form,,0.5,0.4,0.5,0.5,0.6,0.5,0.7,0.3,0.5,0.5,0.5,0.7,0.5
CYNFLKEQHCQKAST,,,recognized in looped form,,0.5,0.3,0.5,0.5,0.6,0.4,0.7,0.1,0.4,0.3,0.5,0.6,0.4
STQREAEAAVKPLLA,,,recognized in looped form,,0.5,0.3,0.5,0.5,0.6,0.4,0.4,0.5,0.4,0.6,1.2,1.2,0.6

# — patent US20060154243A1 (priority 2003, published 2006)
